Values quoted from earlier work as cited in US9255080B2, “Quinazolinedione derivatives as PARP inhibitors” (Janssen Pharmaceutica NV, priority 2004, dated 2016).

How the values were obtained:
[1] = system: ischemia and reperfusion of the heart; conditions: rabbits, cited from earlier work
[2] = system: colitis induced by trinitrobenzene sulfonic acid; conditions: rats, colitis by intraluminal trinitrobenzene sulfonic acid in 50% ethanol; cited from earlier work

Which “reduction in infarct size in the heart” value ([1]; single injection 10 mg/kg, one minute before occlusion or one minute before reperfusion) does the source give for `NC(=O)c1cccc(N)c1` [3-amino-benzamide] here?
Its value is 32-42%.

What about the “effect on inflammatory response and distal colon” value [2] of the same molecule?
The value was “reduced the inflammatory response and restored the morphology and the energetic status of the distal colon”.

Which “reduction in infarct size” value ([1]; single injection 1 mg/kg) does the source give for `Oc1cccc2c(O)nccc12` [1,5-dihydroxyisoquinoline] here?
Its value is 38-48%.
